Laboratory results: patent publication US20120065228A1, “COMPOSITIONS AND METHODS FOR TREATING, CONTROLLING, REDUCING, OR AMELIORATING OCULAR INFLAMMATORY WITH LOWER RISK OF INCREASED INTRAOCULAR PRESSURE” (priority 2007, published 2012)

Legend:
[1] = tested on: intraocular pressure (IOP) in New Zealand White rabbits; assay: Intraocular pressure in New Zealand White rabbits, topical dosing four times daily; assay type: in vivo
Procedure: On Days 1-31, animals received daily topical doses of the appropriate test article into the right eye. Animals were dosed four times per day, with doses administered 2 hours apart. Doses were administered using a calibrated 50-μL pipette. The eyelids were held close for 10 seconds immediately following dosing. The time of each dose administration was recorded.
Intraocular pressure (“IOP”) was determined for both eyes of each animal on Days 3, 5, 10, 12, 16, 18, 22, 24, 26, 30, and 32. LOP was evaluated with a Medtronic Solan, Model 30 classic pneumatonometer. Proparacaine hydrochloride 0.5% (1 drop) was delivered to each eye prior to IOP measurement. IOP was measured on Monday, Wednesday, and Friday of each week. A two-point diurnal curve was established: IOP was recorded at 8 a.m. and 12 p.m. on Day 3, and at 8 a.m. and 2 p.m. on later days, with a ±1 hour range for each of these times. The time of the measurements was recorded.
Descriptive statistics were prepared for IOP data of each treatment group (left and right eyes separately) at each measurement interval. The statistics included the number of observations (“N”), mean, standard deviation (“STD”), and standard error (“SEM”). Statistical analyses were conducted on IOP results using Statistical Analysis Systems (SAS Institute, Inc., Cary, N.C., V8.0). Parameters were evaluated using analysis of variance/GLM Procedure followed by Tukey's Standardized Range Test (Tukey, 1985) for post hoc comparisons of group means. The level of significance was set at a probability of p<0.05 for all statistical procedures. Group IOP means were compared at each interval, with left and right eyes compared separately.
IOP data for the following six animals were excluded from group statistics: Group A, Nos. 3081, 3037, 3068, and 3011; Group C, No. 3034; and Group E, No. 3084.

monkey TM cells = assay: Cell metabolic activity (resazurin reduction) assay in monkey TM cells; assay type: cell-based, rhesus monkeys (Macaca mulatta); conditions: at the conclusion of the treatment periods
Procedure: A modification of previously described methods^40 was employed to evaluate cell metabolic activity, an index of cell viability. After collection of CM samples, cells were briefly rinsed in modified Hanks balanced salt solution containing Ca^++ and Mg^++ (“MHBSS”), and then 0.0025% (w/v) resazurin (Sigma) in MHBSS was added to sample wells. Plates were incubated (37° C., 5% CO2, 95% humidity) for 90 minutes, after which fluorescence (Excitation 560 nm, Emission 590 nm) was read (Victor 3V Multilabel Counter, Wallac, Turku, Finland). As a positive control for decreased cellular metabolic reduction of resazurin, in each plate an additional well of vehicle control-treated cells was preincubated with 0.06% hydrogen peroxide (Fisher, Atlanta, Ga.) in MHBSS.

## C[C@@H]1C[C@H]2[C@@H]3CCC4=CC(=O)C=C[C@]4(C)[C@@]3(F)[C@@H](O)C[C@]2(C)[C@@]1(O)C(=O)CO [dexamethasone, reference compound]
[1]; 0.1% dexamethasone suspension, on several days, p<0.05
  Mean IOP versus corresponding eyes of other groups: significantly higher
[1]; rabbits, right eye four times daily up to 31 days, dexamethasone 0.1%, BOL-303242-X 1, 5, 10 mg/g, left and right eyes
  Mean IOP after treatment began: increased sharply
Monkey TM cells
  Cell viability (chemical reduction of resazurin) compared to vehicle controls: nor did any drug treatments result in a loss of cell viability
